The text below walks through data of ChEMBL document CHEMBL5357036, “Latest developments in coumarin-based anticancer agents: mechanism of action and structure-activity relationship studies” (RSC Med Chem, 2024).

Test [1] has as its system MCF7. The experiment in a line: Cytotoxicity against human MCF7 cells assessed as inhibition of cell growth measured after 24 hrs by MTT assay. It counts as functional, cell-based. Conditions: MCF7, 24 h. (In general: Formazan colour is commonly taken as a measure of viable cells.)
Test [2] has as its system MCF7. Briefly: Antiproliferative activity against human MCF7 cells assessed as reduction in cell viability measured after 24 hrs by MTT assay. It counts as functional, cell-based. The following applies: MCF7, 24 h.
In test [3] the test system is MCF7. The experiment in a line: Cytotoxicity against human MCF7 cells assessed as cell growth inhibition incubated for 48 hrs by SRB assay. The class given is functional, cell-based. The following applies: MCF7, 48 h. For orientation: The SRB assay estimates cell density from bound dye.
Test [4] deals with T47D. The experiment in a line: Anticancer activity against human T47D cells assessed as cell growth inhibition. It counts as functional, cell-based.
The test system of test [5] is MCF7. Briefly: Growth inhibition of human MCF7 cells incubated for 48 hrs by SRB assay. It counts as functional.
Test [6] has as its system HT-29. The experiment in a line: Cytotoxicity against human HT-29 cells assessed as reduction in cell viability incubated for 48 hrs by SRB assay. It counts as functional, cell-based. The following applies: HT-29, 48 h.
In test [7] the test system is HCT-116. The experiment in a line: Cytotoxicity against human HCT-116 cells assessed as reduction in cell viability incubated for 48 hrs by SRB assay. The class given is functional, cell-based. The following applies: HCT-116, 48 h.
Test [8] concerns MCF7. Briefly: Anticancer activity against human MCF7 cells assessed as cell growth inhibition by MTT assay. The class given is functional, cell-based.
The subject of test [9] is A549. The experiment in a line: Cytotoxicity against human A549 cells assessed as reduction in cell growth incubated for 48 hrs by MTT assay. The class given is functional, cell-based. Conditions: A549, 48 h.
The subject of test [10] is MCF7. The experiment in a line: Cytotoxicity against human MCF7 cells assessed as reduction in cell growth incubated for 48 hrs by MTT assay. It counts as functional, cell-based. Conditions: MCF7, 48 h.
Test [11] concerns SW480. The experiment in a line: Cytotoxicity against human SW480 cells assessed as reduction in cell viability incubated for 48 hrs by MTT. The class given is functional, cell-based. The following applies: SW480, 48 h.
For test [12], the system named is MCF7. The experiment in a line: Cytotoxicity against human MCF7 cells assessed as reduction in cell growth incubated for 5 days by MTT assay. It counts as functional, cell-based. The following applies: MCF7, 120 h.
Test [13] concerns HOS. Briefly: Cytotoxicity against human HOS cells assessed as reduction in cell growth incubated for 5 days by MTT assay. The class given is functional, cell-based. The following applies: 120 h.
Test [14] has as its system MCF7. Briefly: cells. The following applies: Homo sapiens, MCF7, 24 h.
Description: Cytotoxicity against human MCF7 cells assessed as reduction in cell viability incubated for 24 hrs by MTT assay
Test [15] deals with MCF7-DOX. Briefly: Antiproliferative activity against human MCF7-DOX cells assessed as reduction in cell viability by MTT assay. The class given is functional, cell-based.
Test [16] concerns HepG2. The experiment in a line: Antiproliferative activity against human HepG2 cells assessed as reduction in cell viability by MTT assay. The class given is functional, cell-based.
Test [17] has as its system A549. Briefly: Antiproliferative activity against human A549 cells assessed as reduction in cell viability by MTT assay. The class given is functional, cell-based.
In test [18] the test system is HeLa. Briefly: Antiproliferative activity against human HeLa cells assessed as reduction in cell viability by MTT assay. It counts as functional, cell-based.
Test [19] concerns DU-145. The experiment in a line: Antiproliferative activity against human DU-145 cells assessed as reduction in cell viability by MTT assay. It counts as functional, cell-based.
The subject of test [20] is SK-OV-3. Briefly: Antiproliferative activity against human SK-OV-3 cells assessed as reduction in cell viability by MTT assay. The class given is functional, cell-based.
For test [21], the target named is ALK tyrosine kinase receptor (Homo sapiens, UniProt Q9UM73, L1196M). Briefly: Inhibition of ALK L1196M mutant (unknown origin).
Chain of ALK tyrosine kinase receptor (Q9UM73 19-1620 L1196M limits assumed): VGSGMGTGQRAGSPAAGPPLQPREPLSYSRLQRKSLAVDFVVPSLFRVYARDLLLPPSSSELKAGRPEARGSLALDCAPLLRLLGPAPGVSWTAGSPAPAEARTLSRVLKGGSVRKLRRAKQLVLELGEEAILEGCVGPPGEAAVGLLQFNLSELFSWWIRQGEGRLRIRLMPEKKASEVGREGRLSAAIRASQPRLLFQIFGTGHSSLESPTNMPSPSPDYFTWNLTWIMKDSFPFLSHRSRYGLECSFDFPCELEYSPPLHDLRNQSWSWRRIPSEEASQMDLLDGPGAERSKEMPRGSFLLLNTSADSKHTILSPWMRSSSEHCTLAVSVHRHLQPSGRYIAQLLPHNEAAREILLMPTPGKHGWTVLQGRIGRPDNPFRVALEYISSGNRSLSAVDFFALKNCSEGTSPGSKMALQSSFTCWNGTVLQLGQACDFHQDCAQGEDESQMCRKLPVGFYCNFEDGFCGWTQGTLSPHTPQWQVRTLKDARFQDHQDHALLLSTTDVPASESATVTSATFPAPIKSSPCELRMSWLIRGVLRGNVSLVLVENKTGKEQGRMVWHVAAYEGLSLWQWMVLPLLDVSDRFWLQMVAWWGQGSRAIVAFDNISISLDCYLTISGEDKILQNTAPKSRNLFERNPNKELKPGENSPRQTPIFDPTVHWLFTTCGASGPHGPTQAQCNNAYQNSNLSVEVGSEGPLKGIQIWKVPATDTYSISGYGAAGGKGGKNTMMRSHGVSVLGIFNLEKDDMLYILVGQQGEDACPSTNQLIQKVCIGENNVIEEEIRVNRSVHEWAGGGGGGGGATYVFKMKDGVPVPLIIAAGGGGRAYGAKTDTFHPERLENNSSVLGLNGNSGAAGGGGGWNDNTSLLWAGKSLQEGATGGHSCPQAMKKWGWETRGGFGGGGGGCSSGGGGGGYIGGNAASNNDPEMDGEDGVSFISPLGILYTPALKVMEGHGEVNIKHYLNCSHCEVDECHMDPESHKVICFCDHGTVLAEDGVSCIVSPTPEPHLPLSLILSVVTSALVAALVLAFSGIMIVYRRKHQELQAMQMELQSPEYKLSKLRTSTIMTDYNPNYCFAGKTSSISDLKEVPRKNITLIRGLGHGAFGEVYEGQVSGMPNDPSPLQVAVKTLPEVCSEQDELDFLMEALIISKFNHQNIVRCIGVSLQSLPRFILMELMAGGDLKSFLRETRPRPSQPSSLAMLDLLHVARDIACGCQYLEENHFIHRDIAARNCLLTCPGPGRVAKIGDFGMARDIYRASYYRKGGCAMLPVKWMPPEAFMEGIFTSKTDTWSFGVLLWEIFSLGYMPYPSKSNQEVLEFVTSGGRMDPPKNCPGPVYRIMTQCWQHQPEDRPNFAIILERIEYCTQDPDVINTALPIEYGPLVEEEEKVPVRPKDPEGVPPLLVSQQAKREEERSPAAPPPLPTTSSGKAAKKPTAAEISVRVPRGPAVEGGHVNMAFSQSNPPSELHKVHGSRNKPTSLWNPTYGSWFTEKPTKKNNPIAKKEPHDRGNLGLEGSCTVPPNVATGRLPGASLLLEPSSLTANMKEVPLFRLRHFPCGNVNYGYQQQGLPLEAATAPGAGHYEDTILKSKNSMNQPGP
The test system of test [22] is MCF7. The experiment in a line: Antiproliferative activity against human MCF7 cells assessed as reduction in cell viability by MTT assay. The class given is functional, cell-based.
The test system of test [23] is K562. The experiment in a line: Cytotoxicity against human K562 cells assessed as reduction in cell growth by MTT assay. It counts as functional, cell-based.
The test system of test [24] is MDA-MB-231. The experiment in a line: Antiproliferative activity against human MDA-MB-231 cells assessed as reduction in cell viability measured after 72 hrs under hypoxia condition by MTT assay. The following applies: MDA-MB-231, 72 h. It counts as functional, cell-based.
In test [25] the test system is MDA-MB-231. The experiment in a line: Antiproliferative activity against human MDA-MB-231 cells assessed as reduction in cell viability measured after 72 hrs under normoxia condition by MTT assay. The following applies: MDA-MB-231, 72 h.

Values after ≈ are worked out from the molar mass of the structure shown.

As usually defined, the IC50 is the concentration that inhibits the measured activity by half. The GI50 is the concentration that inhibits growth by half. A higher GI50 goes with less potent growth inhibition.

Consider `COc1ccc(-c2cc(-c3cc4ccccc4oc3=O)nc3nc(C)[nH]c(=O)c23)cc1`, for which the IC50 in test [1] turned out to be 1.1 µM.

Regarding `Cc1cc(OCc2cn(C3C(=O)N(c4cccc([N+](=O)[O-])c4)C3/C=C\c3ccccc3)nn2)cc2oc(=O)cc(C)c12` (stereo unspecified), the IC50 in test [2] is 53.6 µM.

As for `COc1cc(/C=C2/SC(=O)N(CCCOc3ccc4c(C)cc(=O)oc4c3)C2=O)cc(OC)c1O`, the IC50 in test [3] was 12.1 µg/mL (≈ 24.4 µM).

As for `COc1cc(/C=C/C(=O)c2cc3ccccc3oc2=O)ccc1OCCN1CCCCC1`, the half-inhibitory concentration (IC50) in [4] worked out at 2.32 µM. In addition, halving of growth in test [5] (GI50) required 32.5 µg/mL (≈ 75 µM).

Take `Cc1cc(=O)oc2cc(Nc3nc(-c4ccc(Cl)cc4)cs3)ccc12`: the IC50 in test [6] and in test [7] was 0.25 µM in each case.

On to `COc1ccc(-c2cc(-c3cc4ccccc4oc3=O)nc(N)c2C(N)=O)cc1`, for which the IC50 in test [1] stood at 1.1 µM.

Take `COc1ccccc1-c1csc(Nc2ccc3c(C)cc(=O)oc3c2)n1`: the half-maximal inhibitory concentration (IC50) in test [6] and in [7] was 0.25 µM each time.

Turning to `COc1ccc(/C=C2/SC(=O)N(CCCOc3ccc4c(C)cc(=O)oc4c3)C2=O)cc1`, the IC50 in test [3] worked out at 15.6 µg/mL (≈ 34.7 µM).

For the compound `CCN(CC)c1ccc2oc(=O)c(-c3csc(-n4nc(-c5ccccc5)cc4N)n3)cc2c1`, in [8], the IC50 amounted to 8 µM.

Regarding `Cc1c(NC(=O)CNCc2cccnc2)c(=O)oc2ccccc12`, the IC50 in [9] and in [10] was 69.1 µM each time.

For the compound `COc1ccc(-c2cc(-c3cc4ccccc4oc3=O)nc(NC(C)=O)c2C#N)cc1`, the IC50 in [1] was found to be 1.1 µM.

`COc1cc(/C=C/c2ccc3ccc(=O)oc3c2)cc(OC)c1O`: the IC50 in test [11] came to 1.01 µM.

Turning to `CC(c1cc2ccccc2oc1=O)(c1c[nH]c2ccc(I)cc12)c1c[nH]c2ccc(I)cc12`, the IC50 in test [12] was 28 µM; in test [13], 8.75 µM.

With `C/C(=N\Nc1nc(C)c(/N=N/c2ccc(Cl)cc2)s1)c1cc2cc(/N=N/c3ccccc3)ccc2oc1=O`, inhibition in test [14] was half-maximal at 10.5 µM (IC50).

As for `Cc1ccc2c(c1)/C(=N\O)C(=O)N2CCOCCn1cc(COc2ccc3c(C)cc(=O)oc3c2)nn1`, the IC50 stood at 15.5 µM in [15]; 19.9 µM in test [16]; 18.7 µM in test [17]; 21.3 µM in test [18]; 31.5 µM in [19]; 18 µM in [20].

`COc1ccc2cc(-c3nc4ccc(OC)cc4s3)c(=O)oc2c1` had an IC50 in test [21] of 0.45 µM.

As to `Cc1cc(OCc2cn(C3C(=O)N(c4cccc(Cl)c4)C3/C=C\c3ccccc3)nn2)cc2oc(=O)cc(C)c12` (stereo unspecified), the IC50 in test [2] came to 58.6 µM.

`CC(c1cc2ccccc2oc1=O)(c1c[nH]c2ccccc12)c1c[nH]c2ccccc12`: the IC50 in test [12] was 19.8 µM; in test [13] it was 20.8 µM.

For `O=C(/C=C/c1ccccc1OCCN1CCCCC1)c1cc2ccccc2oc1=O`, the IC50 in test [4] is 2.32 µM. In test [5], this compound showed a GI50 of 18.9 µg/mL (≈ 46.8 µM).

As to `CO/N=C1\C(=O)N(CCOCCOCCOCCn2cc(COc3ccc4c(C)cc(=O)oc4c3)nn2)c2ccc(F)cc21`, the IC50 turned out to be 20.1 µM in [15]; 26.1 µM in [16]; 28.7 µM in test [17]; 25.5 µM in test [18]; 33.4 µM in [19]; 35.3 µM in [20]. Besides, in [22], the IC50 was 29.2 µM.

On to `O=C(/C=C/c1ccc(N2CCOCC2)cc1)c1cc2ccccc2oc1=O`, for which, in test [4], the concentration for half-maximal inhibition (IC50) was 0.9 µM.

Turning to `Cc1c(Cc2ccc(NC(=O)Nc3ccc(Cl)c(F)c3)nc2)c(=O)oc2cc(O)c(C(C)(C)C)cc12`, the IC50 in [23] was determined as 1.66 µM.

Regarding `Cc1ccc2c(c1)C(=O)C(=O)N2CCOCCn1cc(COc2ccc3c(C)cc(=O)oc3c2)nn1`, the IC50 in test [22] came to 28.7 µM.

For the compound `O=c1cc(O)c2ccccc2o1` [4-HYDROXYCOUMARINS], the 50% inhibitory concentration (IC50) in [24] and in test [25] was not below 100 µM in each case.

Regarding `COc1cccc2c1C(=O)c1c(O)c3c(c(O)c1C2=O)C[C@@](O)(C(=O)CO)C[C@@H]3O[C@H]1C[C@H](N)[C@H](O)[C@H](C)O1` [DOXORUBICIN], the IC50 in test [24] was 0.6 µM; in test [25] it was 1.07 µM.

In turn, `CNC(=O)c1cc(Oc2ccc(NC(=O)Nc3ccc(Cl)c(C(F)(F)F)c3)cc2)ccn1` [SORAFENIB] showed an IC50 in test [14] of 5.1 µM.
